Test results from patent publication US7329685B2, “1-Phenyl-2-oxo-3-sulfonylamino-pyrrolidine derivatives and related compounds as factor Xa inhibitors for the treatment of acute vascular diseases” (Glaxo Group Limited, priority 2003, dated 2008).
Structures can show the parent of a compound that is named as a salt.

target: human Factor Xa (Homo sapiens, UniProt P00742); experiment: In vitro assay for inhibition of Factor Xa (fluorogenic assay, Rhodamine 110 bis-CBZ-glycylglycyl-L-arginine amide substrate); type: biochemical; settings: Ki = IC50/1.6, tiers 'more preferably' and 'most preferably'
Sequence (P00742 235-488 limits assumed): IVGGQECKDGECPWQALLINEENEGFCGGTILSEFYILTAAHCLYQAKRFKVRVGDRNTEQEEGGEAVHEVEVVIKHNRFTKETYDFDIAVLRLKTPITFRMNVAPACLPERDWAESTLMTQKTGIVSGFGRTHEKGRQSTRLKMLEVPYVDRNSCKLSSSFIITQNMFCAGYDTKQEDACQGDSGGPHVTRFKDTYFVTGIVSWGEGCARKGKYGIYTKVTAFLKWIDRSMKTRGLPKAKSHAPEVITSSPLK
Sequence (P00742 41-179 partner limits assumed): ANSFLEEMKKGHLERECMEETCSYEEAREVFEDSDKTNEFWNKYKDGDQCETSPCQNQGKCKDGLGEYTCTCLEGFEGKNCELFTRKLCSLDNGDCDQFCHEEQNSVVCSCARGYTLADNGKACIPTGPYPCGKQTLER
Method: In Vitro Assay for Inhibition of Factor Xa
Compounds of the present invention were tested for their Factor Xa inhibitory activity as determined in vitro by their ability to Inhibit human Factor Xa in a fluorogenic assay, using Rhodamine 110, bis-CBZ-glycylglycyl-L-arginine amide as the fluorogenic substrate. Compounds were diluted from a 10 mM stock solution in dimethylsulfoxide at appropriate concentrations. Assay was performed at room temperature using buffer consisting of: 50 mM Tris-HCl, 150 mM NaCl, 5 mM CaCl2, pH 7.4. containing human Factor Xa (final conc. Of 0.0003U.ml-1). Compound and enzyme were preincubated for 15 min prior to addition of the substrate (final conc. of 10 μM). The reaction was stopped after 3 hrs with the addition of H-D-Phe-Pro-Arg-Chloromethylketone. An LJL-Analyst fluorimeter was used to monitor fluorescence with 485 nm excitation/535 nm emission. To obtain IC50 values the data were analysed using ActivityBase® and XLfit®.
Calculation of Ki values: Ki=IC50/(1+[Substrate]/Km)
The Ki value for the above assay can be obtained by dividing the IC50 value by 1.6.

| SMILES | Ki [µM] |
| --- | --- |
| CN(C)C(=O)c1ccc(N2CC[C@H](N(C)S(=O)(=O)/C=C/c3ccc(Cl)s3)C2=O)c(F)c1 [Example 14, 4-{(3S)-3-[{[(E)-2-(5-chloro-2-thienyl)ethenyl]sulfonyl}(methyl)amino]-2-oxo-1-pyrrolidinyl}-3-fluoro-N,N-dimethylbenzamide] | < 0.01 |
| C/C(=C\S(=O)(=O)N(CC1CC1)[C@H]1CCN(c2ccc(C(=O)N(C)C)cc2F)C1=O)c1ccc(Cl)s1 [Example 1, 4-{(3S)-3-[{[(1E)-2-(5-Chloro-2-thienyl)-1-propen-1-yl]sulfonyl}(cycloprotylmethyl)amino]-2-oxo-1-pyrrolidinyl}-3-fluoro-N,N-dimethylbenzamide] | < 0.01 |
| C/C(=C\S(=O)(=O)N(Cc1nccn1C)[C@H]1CCN(c2ccc(C(=O)N(C)C)cc2F)C1=O)c1ccc(Cl)s1 [Example 6, 4-((3S)-3{{[(1E)-2-(5-Chloro-2-thienyl)-1-propen-1-yl]sulfonyl}[(1-methyl-1H-imidazol-2-yl)methyl]amino}-2-oxo-1-pyrrolidinyl)-3-fluoro-N,N-dimethylbenzamide] | < 0.01 |
| C/C(=C\S(=O)(=O)N(Cc1ccccn1)[C@H]1CCN(c2ccc(C(=O)N(C)C)cc2F)C1=O)c1ccc(Cl)s1 [Example 8, 4-{(3S)-3-[{[(1E)-2-(5-Chloro-2-thienyl)-1-propen-1-yl]sulfonyl}(2-pyridinylmethyl)amino]-2-oxo-1-pyrrolidinyl}-3-fluoro-N,N-dimethylbenzamide] | < 0.01 |
| C/C(=C\S(=O)(=O)N(CCOCC(N)=O)[C@H]1CCN(c2ccc(C(=O)N(C)C)cc2F)C1=O)c1ccc(Cl)s1 [Example 4, 4-[(3S)-3-({2-[(2-Amino-2-oxoethyl)oxy]ethyl}{[(1E)-2-(5-chloro-2-thienyl)-1-propen-1-yl]sulfonyl}amino)-2-oxo-1-pyrrolidinyl]-3-fluoro-N,N-dimethylbenzamide] | < 0.01 |
| C/C(=C\S(=O)(=O)N(C)[C@H]1CCN(c2ccc(C(=O)N(C)C)cc2F)C1=O)c1ccc(Cl)s1 [Example 13, 4-{(3S)-3-[{[(1E)-2-(5-Chloro-2-thienyl)-1-propen-1-yl]sulfonyl}(methyl)amino]-2-oxo-1-pyrrolidinyl}-3-fluoro-N,N-dimethylbenzamide] | < 0.01 |
| C/C(=C\S(=O)(=O)N(Cc1nccnc1N)[C@H]1CCN(c2ccc(C(=O)N(C)C)cc2F)C1=O)c1ccc(Cl)s1 [Example 12, 4-[(3S)-3-([(3-Amino-2-pyrazinyl)methyl]{[(1E)-2-(5-chloro-2-thienyl)-1-propen-1-yl]sulfonyl}amino)-2-oxo-1-pyrrolidinyl]-3-fluoro-N,N-dimethylbenzamide] | < 0.01 |
| C/C(=C\S(=O)(=O)N(Cc1c(C)noc1C)[C@H]1CCN(c2ccc(C(=O)N(C)C)cc2F)C1=O)c1ccc(Cl)s1 [Example 9, 4-((3S)-3-{{[(1E)-2-(5-Chloro-2-thienyl)-1-propen-1-yl]sulfonyl}[(3,5-dimethyl-4-isoxazolyl)methyl]amino}-2-oxo-1-pyrrolidinyl)-3-fluoro-N,N-dimethylbenzamide] | < 0.01 |
| C/C(=C\S(=O)(=O)N(C1CCCC1)[C@H]1CCN(c2ccc(C(=O)N(C)C)cc2F)C1=O)c1ccc(Cl)s1 [Example 5, 4-{(3S)-3-[{[(1E)-2-(5-Chloro-2-thienyl)-1-propen-1-yl]sulfonyl}(cyclopentyl)amino]-2-oxo-1-pyrrolidinyl}-3-fluoro-N,N-dimethylbenzamide] | < 0.01 |

Continued, values first:

| Ki [µM] | SMILES |
| --- | --- |
| < 0.01 | C/C(=C\S(=O)(=O)N(CCCN(C)C)[C@H]1CCN(c2ccc(C(=O)N(C)C)cc2F)C1=O)c1ccc(Cl)s1 [Example 2, 4-((3S)-3-{{[(1E)-2-(5-Chloro-2-thienyl)-1-propen-1-yl]sulfonyl}[3-(dimethylamino)propyl]amino}-2-oxo-1-Pyrrolidinyl)-3-fluoro-N,N-dimethylbenzamide formate] |
| < 0.01 | C/C(=C\S(=O)(=O)N(CCOC(C)(C)C)[C@H]1CCN(c2ccc(C(=O)N(C)C)cc2F)C1=O)c1ccc(Cl)s1 [Example 11, 4-[(3S)-3-({[(1E)-2-(5-Chloro-2-thienyl)-1-propen-1-yl]sulfonyl}{2-[(1,1-dimethylethyl)oxy]ethyl}amino)-2-oxo-1-pyrrolidinyl]-3-fluoro-N,N-dimethylbenzamide] |
| < 0.01 | C/C(=C\S(=O)(=O)N(C(C)C)[C@H]1CCN(c2ccc(C(=O)N(C)C)cc2F)C1=O)c1ccc(Cl)s1 [Example 7, 4-{(3S)-3-[{[(1E)-2-(5-Chloro-2-thienyl)-1-propen-1-yl]sulfonyl}(1-methylethyl)amino]-2-oxo-1-pyrrolidinyl}-3-fluoro-N,N-dimethylbenzamide] |
| < 0.01 | COCCN([C@H]1CCN(c2ccc(C(=O)N(C)C)cc2F)C1=O)S(=O)(=O)/C=C(\C)c1ccc(Cl)s1 [Example 10, 4-((3S)-3-{{[(1E)-2-(5-Chloro-2-thienyl)-1-propen-1-yl]sulfonyl}[2-(methyloxy)ethyl]amino}-2-oxo-1-pyrrolidinyl)-3-fluoro-N,N-dimethylbenzamide] |
